Converted amounts (≈) assume the structure as drawn. The source made the active and inactive calls. The rule behind the calls is not given here.
How the values were obtained:
GSC3 [1] = experiment: Growth inhibition of human GSC3 cells at 10 ug/ml; assay type: functional, cell-based
GSC12 = experiment: Growth inhibition of human GSC12 cells at 10 ug/ml; assay type: functional, cell-based
GSC18 [2] = experiment: Growth inhibition of human GSC18 cells at 10 ug/ml; assay type: functional, cell-based
[3] = Cytotoxicity against human GSC3 cells after 72 hrs by MTS assay; assay type: functional, cell-based; details: GSC-3, 72 h
[4] = Cytotoxicity against human GSC12 cells after 72 hrs by MTS assay; assay type: functional, cell-based; details: GSC12, 72 h
[5] = Cytotoxicity against human GSC18 cells after 72 hrs by MTS assay; assay type: functional, cell-based; details: GSC18, 72 h
HEK-293T = experiment: Cytotoxicity against human 293T cells after 72 hrs by MTS assay; assay type: cell-based
[6] = Cytotoxicity against human HAC cells after 72 hrs by MTS assay; assay type: cell-based
GSC3 [7] = experiment: Cytotoxicity against human GSC3 cells assessed as suppression of DNA synthesis at 5 ug/ml after 8 hrs by BrdU/DAPI staining based immunofluorescence assay; assay type: functional, cell-based
GSC18 [8] = experiment: Cytotoxicity against human GSC18 cells assessed as suppression of DNA synthesis at 5 ug/ml after 8 hrs by BrdU/DAPI staining based immunofluorescence assay; assay type: functional, cell-based
GSC3 [9] = experiment: Cytotoxicity against human GSC3 cells assessed as cell shrinkage at 5 ug/ml measured after 8 hrs; assay type: functional, cell-based
GSC18 [10] = experiment: Cytotoxicity against human GSC18 cells assessed as cell shrinkage at 5 ug/ml measured after 8 hrs; assay type: functional, cell-based
GSC3 [11] = experiment: Cytotoxicity against human GSC3 cells assessed as cell rounding at 5 ug/ml measured after 8 hrs; assay type: functional, cell-based
GSC18 [12] = experiment: Cytotoxicity against human GSC18 cells assessed as cell rounding at 5 ug/ml measured after 8 hrs; assay type: functional, cell-based
GSC3 [13] = experiment: Cytotoxicity against human GSC3 cells assessed as cell detachment at 5 ug/ml measured after 8 hrs; assay type: functional, cell-based
GSC18 [14] = experiment: Cytotoxicity against human GSC18 cells assessed as cell detachment at 5 ug/ml measured after 8 hrs; assay type: functional, cell-based
[15] = Induction of apoptosis in human GSC3 cells assessed as viable cells at 1 ug/ml after 8 hrs by Annexin V-FITC/propidium iodide staining based flow cytometric method (reference value: 98.8%); assay type: functional; details: GSC-3, 8 h, read-out: Activity
[16] = Induction of apoptosis in human GSC3 cells assessed as early apoptotic cells at 1 ug/ml after 8 hrs by Annexin V-FITC/propidium iodide staining based flow cytometric method (reference value: 0.186%); assay type: functional
[17] = Induction of apoptosis in human GSC3 cells assessed as late apoptotic cells at 1 ug/ml after 8 hrs by Annexin V-FITC/propidium iodide staining based flow cytometric method (reference value: 0.603%); assay type: functional
[18] = Induction of apoptosis in human GSC3 cells assessed as late apoptotic cells at 1 ug/ml after 8 hrs by Annexin V-FITC/propidium iodide staining based flow cytometric method (reference value: 0.373%); assay type: functional
[19] = Induction of apoptosis in human GSC3 cells assessed as viable cells at 2 ug/ml after 8 hrs by Annexin V-FITC/propidium iodide staining based flow cytometric method (reference value: 98.8%); assay type: functional; details: GSC-3, 8 h, read-out: Activity
[20] = Induction of apoptosis in human GSC3 cells assessed as early apoptotic cells at 2 ug/ml after 8 hrs by Annexin V-FITC/propidium iodide staining based flow cytometric method (reference value: 0.186%); assay type: functional
[21] = Induction of apoptosis in human GSC3 cells assessed as late apoptotic cells at 2 ug/ml after 8 hrs by Annexin V-FITC/propidium iodide staining based flow cytometric method (reference value: 0.603%); assay type: functional
[22] = Induction of apoptosis in human GSC3 cells assessed as late apoptotic cells at 2 ug/ml after 8 hrs by Annexin V-FITC/propidium iodide staining based flow cytometric method (reference value: 0.373%); assay type: functional
[23] = Induction of apoptosis in human GSC3 cells assessed as viable cells at 5 ug/ml after 8 hrs by Annexin V-FITC/propidium iodide staining based flow cytometric method (reference value: 98.8%); assay type: functional; details: GSC-3, 8 h, read-out: Activity
[24] = Induction of apoptosis in human GSC3 cells assessed as early apoptotic cells at 5 ug/ml after 8 hrs by Annexin V-FITC/propidium iodide staining based flow cytometric method (reference value: 0.186%); assay type: functional
[25] = Induction of apoptosis in human GSC3 cells assessed as late apoptotic cells at 5 ug/ml after 8 hrs by Annexin V-FITC/propidium iodide staining based flow cytometric method (reference value: 0.603%); assay type: functional
[26] = Induction of apoptosis in human GSC3 cells assessed as late apoptotic cells at 5 ug/ml after 8 hrs by Annexin V-FITC/propidium iodide staining based flow cytometric method (reference value: 0.373%); assay type: functional
[27] = Induction of apoptosis in human GSC18 cells assessed as viable cells at 1 ug/ml after 8 hrs by Annexin V-FITC/propidium iodide staining based flow cytometric method (reference value: 85.5%); assay type: functional; details: GSC18, 8 h, read-out: Activity
[28] = Induction of apoptosis in human GSC18 cells assessed as early apoptotic cells at 1 ug/ml after 8 hrs by Annexin V-FITC/propidium iodide staining based flow cytometric method (reference value: 7.73%); assay type: functional
[29] = Induction of apoptosis in human GSC18 cells assessed as late apoptotic cells at 1 ug/ml after 8 hrs by Annexin V-FITC/propidium iodide staining based flow cytometric method (reference value: 4.25%); assay type: functional
[30] = Induction of apoptosis in human GSC18 cells assessed as late apoptotic cells at 1 ug/ml after 8 hrs by Annexin V-FITC/propidium iodide staining based flow cytometric method (reference value: 2.54%); assay type: functional
[31] = Induction of apoptosis in human GSC18 cells assessed as viable cells at 2 ug/ml after 8 hrs by Annexin V-FITC/propidium iodide staining based flow cytometric method (reference value: 85.5%); assay type: functional; details: GSC18, 8 h, read-out: Activity
[32] = Induction of apoptosis in human GSC18 cells assessed as early apoptotic cells at 2 ug/ml after 8 hrs by Annexin V-FITC/propidium iodide staining based flow cytometric method (reference value: 7.73%); assay type: functional
[33] = Induction of apoptosis in human GSC18 cells assessed as late apoptotic cells at 2 ug/ml after 8 hrs by Annexin V-FITC/propidium iodide staining based flow cytometric method (reference value: 4.25%); assay type: functional
[34] = Induction of apoptosis in human GSC18 cells assessed as late apoptotic cells at 2 ug/ml after 8 hrs by Annexin V-FITC/propidium iodide staining based flow cytometric method (reference value: 2.54%); assay type: functional
[35] = Induction of apoptosis in human GSC18 cells assessed as viable cells at 5 ug/ml after 8 hrs by Annexin V-FITC/propidium iodide staining based flow cytometric method (reference value: 85.5%); assay type: functional; details: GSC18, 8 h, read-out: Activity
[36] = Induction of apoptosis in human GSC18 cells assessed as early apoptotic cells at 5 ug/ml after 8 hrs by Annexin V-FITC/propidium iodide staining based flow cytometric method (reference value: 7.73%); assay type: functional
[37] = Induction of apoptosis in human GSC18 cells assessed as late apoptotic cells at 5 ug/ml after 8 hrs by Annexin V-FITC/propidium iodide staining based flow cytometric method (reference value: 4.25%); assay type: functional
[38] = Induction of apoptosis in human GSC18 cells assessed as late apoptotic cells at 5 ug/ml after 8 hrs by Annexin V-FITC/propidium iodide staining based flow cytometric method (reference value: 2.54%); assay type: functional
GSC3 [39] = experiment: Induction of apoptosis in human GSC3 cells assessed as increase in cleaved caspase-3 at 5 ug/ml after 8 hrs by DAPI staining based immunofluorescence assay; assay type: functional, cell-based
GSC18 [40] = experiment: Induction of apoptosis in human GSC18 cells assessed as increase in cleaved caspase-3 at 5 ug/ml after 8 hrs by DAPI staining based immunofluorescence assay; assay type: functional, cell-based
GSC3 [41] = experiment: Inhibition of colony formation in human GSC3 cells assessed as clonal sphere damage at 5 ug/ml after 10 days by crystal violet staining based assay; assay type: functional, cell-based
GSC18 [42] = experiment: Inhibition of colony formation in human GSC18 cells assessed as clonal sphere damage at 5 ug/ml after 10 days by crystal violet staining based assay; assay type: functional, cell-based
GSC3 [43] = experiment: Inhibition of colony formation in human GSC3 cells assessed as reduction in numbers of clonal sphere at 5 ug/ml after 10 days by crystal violet staining based assay; assay type: functional, cell-based
GSC18 [44] = experiment: Inhibition of colony formation in human GSC18 cells assessed as reduction in numbers of clonal sphere at 5 ug/ml after 10 days by crystal violet staining based assay; assay type: functional, cell-based

With C=C1C(=O)O[C@@H]2/C=C(\C)CCC/C(C)=C/C[C@@H]12 the “growth inhibition (GI)” value (GSC3 [1]) was “Active”, the “growth inhibition (GI)” value (GSC12) was “Active” and the “growth inhibition (GI)” value (GSC18 [2]) was “Active”. It also gave an IC50 [3] of 2.8 µg/mL (≈ 12.1 µM), an IC50 [4] of 2.61 µg/mL (≈ 11.2 µM) and an IC50 [5] of 1.07 µg/mL (≈ 4.61 µM). The IC50 (HEK-293T) was 7.61 µg/mL (≈ 32.8 µM), the IC50 [6] was 7.42 µg/mL (≈ 31.9 µM) and the Activity (GSC3 [7]) was “Active”. The Activity (GSC18 [8]) was “Active”, the Activity (GSC3 [9]) was “Active” and the Activity (GSC18 [10]) was “Active”. The Activity (GSC3 [11]) was “Active”, the Activity (GSC18 [12]) was “Active” and the Activity (GSC3 [13]) was “Active”. For the same molecule, the Activity (GSC18 [14]) was “Active”, the viability at 1 µg/mL [15] was 94.7% and the Activity [16] was 0.096%. The Activity [17] was 0.942%, the Activity [18] was 4.3% and the viability at 2 µg/mL [19] was 91.4%. It also gave an Activity [20] of 1.06%, an Activity [21] of 3.53% and an Activity [22] of 4%. For the same molecule, the viability at 5 µg/mL [23] was 19.2%, the Activity [24] was 3.98% and the Activity [25] was 54.3%. The Activity [26] was 22.4%, the viability at 1 µg/mL [27] was 51.2% and the Activity [28] was 1.54%. The Activity [29] was 17.3%, the Activity [30] was 30% and the viability at 2 µg/mL [31] was 57.5%. It also gave an Activity [32] of 3.28%, an Activity [33] of 22.1% and an Activity [34] of 17.1%. It also gave a viability at 5 µg/mL [35] of 39.6%, an Activity [36] of 4.1% and an Activity [37] of 21.1%. For the same molecule, the Activity [38] was 35.2%, the Activity (GSC3 [39]) was “Active” and the Activity (GSC18 [40]) was “Active”. The inhibition (GSC3 [41]) was “Active”, the inhibition (GSC18 [42]) was “Active” and the inhibition (GSC3 [43]) was “Active”. The inhibition (GSC18 [44]) was “Active”.
